Where a SMILES comes first, the peptide text is derived from it. Bridges are numbered along the chain shown (N, C = ends). Where no end group is shown, it is not given here.
Legend:
[1] = in vivo; details: male, SD, rat, iv, 10 nmol/kg
Experimental: The experiment was carried out using rats into which polyethylene tube (PE-50 manufactured by Clay Adams) was previously inserted into thigh artery under an anesthetized condition with Nembutal. As to a test system, male SD strain rats (Nippon Charles River) of 7 weeks age were used where one group comprised 3 rats. Native CNP-22 or chimeric CNP in a dose of 10 nmol/kg was administered into tail vein of the rat and the blood before the administration and until 60 minutes after the administration was collected by a polyethylene tube inserted into the thigh artery. To the collected blood were added EDTA (manufactured by Dojin Laboratories) and aprotinin (manufactured by Bayer) as a stabilizer and an anti-coagulant, respectively and the plasma was separated therefrom by centrifugal separation. CNP immunoreactivity concentration in plasma was measured by a competitive radioimmunoassay (RIA). At that time, a rabbit polyclonal antibody (#2) which specifically recognizes the ring partial structure of the native CNP-22 was used as an antibody and, as a labeled compound, ^125I-[Tyr^0] CNP was used.

[2] = Motilin immunoreactivity concentration in plasma, half-life after intravenous administration (Example 6); format: in vivo, rat; details: for half-life: SD, rat, plasma, 10 nmol/kg, male rats, N = 3, read-out: T½ Mean Value
Experimental: The experiment was carried out using rats into which polyethylene tube (PE-50 manufactured by Clay Adams) was previously inserted into thigh artery under an anesthetized condition with Nembutal. As to a test system, male SD strain rats (Nippon Charles River) of 7 weeks age were used where one group comprised 3 rats. Human type motilin or a derivative thereof in a dose of 10 nmol/kg was administered into tail vein of the rat and the blood before the administration and until 60 minutes after the administration was collected by a polyethylene tube inserted into the thigh artery. To the collected blood were added EDTA (manufactured by Dojin Laboratories) and aprotinin (manufactured by Bayer) as a stabilizer and an anti-coagulant, respectively and the plasma was separated therefrom by centrifugal separation.

[3] = Motilin immunoreactivity concentration in plasma, half-life after intravenous administration (Example 8); details: SD, rat, in vivo, 10 nmol/kg
Procedure, shortened: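 Male SD rats (7 weeks, n=3/group) received human motilin or derivative at 10 nmol/kg i.v. via tail vein; arterial blood was sampled up to 60 min, with EDTA and aprotinin added. Plasma motilin immunoreactivity was measured by competitive RIA using a rabbit polyclonal antibody against native motilin residues 1–12 and ^125I-[Tyr^7] human motilin tracer.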

| Compound | half-life [1] [min] | half-life [2] [min] | other results |
| --- | --- | --- | --- |
| CC[C@H](C)[C@@H]1NC(=O)[C@H](CCCNC(=N)N)NC(=O)[C@H](CC(=O)O)NC(=O)[C@H](CC(C)C)NC(=O)[C@H](CCCCN)NC(=O)[C@H](CC(C)C)NC(=O)CNC(=O)[C@H](Cc2ccccc2)NC(=O)[C@@H](N)CSSC[C@@H](C(=O)N[C@H](C(=O)N[C@@H](CCC(N)=O)C(=O)N[C@@H](CCC(N)=O)C(=O)N[C@@H](CCCNC(=N)N)C(=O)N[C@@H](CCCCN)C(=O)N[C@@H](CCC(=O)O)C(=O)N[C@@H](CO)C(=O)N[C@@H](CCCCN)C(=O)N[C@@H](CCCCN)C(=O)N2CCC[C@H]2C(=O)N2CCC[C@H]2C(=O)N[C@@H](C)C(=O)N[C@@H](CCCCN)C(=O)N[C@@H](CC(C)C)C(=O)N[C@@H](CCC(N)=O)C(=O)N2CCC[C@H]2C(=O)N[C@@H](CCCNC(=N)N)C(=O)O)C(C)C)NC(=O)CNC(=O)[C@H](CC(C)C)NC(=O)CNC(=O)[C@H](CO)NC(=O)[C@H](CCSC)NC(=O)[C@H](CO)NC(=O)CNC1=O [Chimeric CNP (C)] (H-CFGLKLDRIGSMSGLGCVQQRKESKKPPAKLQPR-OH; disulfide 1-17; N-terminus and C-terminus assumed) | 15 | – | – |
| CC[C@H](C)[C@@H]1NC(=O)[C@H](CCCNC(=N)N)NC(=O)[C@H](CC(=O)O)NC(=O)[C@H](CC(C)C)NC(=O)[C@H](CCCCN)NC(=O)[C@H](CC(C)C)NC(=O)CNC(=O)[C@H](Cc2ccccc2)NC(=O)[C@@H](NC(=O)[C@H](CCCNC(=N)N)NC(=O)[C@@H]2CCCN2C(=O)[C@H](CCC(N)=O)NC(=O)[C@H](CC(C)C)NC(=O)[C@H](CCCCN)NC(=O)[C@H](C)NC(=O)[C@@H]2CCCN2C(=O)[C@@H]2CCCN2C(=O)[C@H](CCCCN)NC(=O)[C@H](CCCCN)NC(=O)[C@H](CO)NC(=O)[C@H](CCC(=O)O)NC(=O)[C@H](CCCCN)NC(=O)[C@H](CCCNC(=N)N)NC(=O)[C@H](CCC(N)=O)NC(=O)[C@H](CCC(N)=O)NC(=O)[C@@H](N)C(C)C)CSSC[C@@H](C(=O)O)NC(=O)CNC(=O)[C@H](CC(C)C)NC(=O)CNC(=O)[C@H](CO)NC(=O)[C@H](CCSC)NC(=O)[C@H](CO)NC(=O)CNC1=O [Chimeric CNP (G)] (H-VQQRKESKKPPAKLQPRCFGLKLDRIGSMSGLGC-OH; disulfide 18-34; N-terminus and C-terminus assumed) | 17.8 | – | – |
| CC[C@H](C)[C@@H]1NC(=O)[C@H](CCCNC(=N)N)NC(=O)[C@H](CC(=O)O)NC(=O)[C@H](CC(C)C)NC(=O)[C@H](CCCCN)NC(=O)[C@H](CC(C)C)NC(=O)CNC(=O)[C@H](Cc2ccccc2)NC(=O)[C@@H](NC(=O)[C@@H](NC(=O)[C@H](CCC(N)=O)NC(=O)[C@H](CCC(N)=O)NC(=O)[C@H](CCCNC(=N)N)NC(=O)[C@H](CCCCN)NC(=O)[C@H](CCC(=O)O)NC(=O)[C@H](CO)NC(=O)[C@H](CCCCN)NC(=O)[C@H](CCCCN)NC(=O)[C@@H]2CCCN2C(=O)[C@@H]2CCCN2C(=O)[C@H](C)NC(=O)[C@H](CCCCN)NC(=O)[C@H](CC(C)C)NC(=O)[C@H](CCC(N)=O)NC(=O)[C@@H]2CCCN2C(=O)[C@@H](N)CCCNC(=N)N)C(C)C)CSSC[C@@H](C(=O)O)NC(=O)CNC(=O)[C@H](CC(C)C)NC(=O)CNC(=O)[C@H](CO)NC(=O)[C@H](CCSC)NC(=O)[C@H](CO)NC(=O)CNC1=O [Chimeric CNP (H)] (H-RPQLKAPPKKSEKRQQVCFGLKLDRIGSMSGLGC-OH; disulfide 18-34; N-terminus and C-terminus assumed) | 14.9 | – | – |
| CC[C@H](C)[C@@H]1NC(=O)[C@H](CCCNC(=N)N)NC(=O)[C@H](CC(=O)O)NC(=O)[C@H](CC(C)C)NC(=O)[C@H](CCCCN)NC(=O)[C@H](CC(C)C)NC(=O)CNC(=O)[C@H](Cc2ccccc2)NC(=O)[C@@H](N)CSSC[C@@H](C(=O)N[C@H](C(=O)N[C@@H](CCC(N)=O)C(=O)N[C@@H](CCC(N)=O)C(=O)N[C@@H](CCCNC(=N)N)C(=O)N[C@@H](CCCCN)C(=O)N[C@@H](CCC(=O)O)C(=O)N[C@@H](CO)C(=O)N[C@@H](CCCCN)C(=O)N[C@@H](CCCCN)C(=O)N2CCC[C@H]2C(=O)N2CCC[C@H]2C(=O)N[C@@H](C)C(=O)N[C@@H](CCCCN)C(=O)N[C@@H](CC(C)C)C(=O)N[C@@H](CCC(N)=O)C(=O)N2CCC[C@H]2C(=O)N[C@@H](CCCNC(=N)N)C(N)=O)C(C)C)NC(=O)CNC(=O)[C@H](CC(C)C)NC(=O)CNC(=O)[C@H](CO)NC(=O)[C@H](CCSC)NC(=O)[C@H](CO)NC(=O)CNC1=O [Chimeric CNP (I)] (H-CFGLKLDRIGSMSGLGCVQQRKESKKPPAKLQPR-NH2; disulfide 1-17; N-terminus assumed) | 14.5 | – | – |
| CC[C@H](C)[C@H](NC(=O)[C@@H]1CCCN1C(=O)[C@@H](NC(=O)[C@@H](N)Cc1ccccc1)C(C)C)C(=O)N[C@@H](Cc1ccccc1)C(=O)N[C@H](C(=O)N[C@@H](Cc1ccc(O)cc1)C(=O)NCC(=O)N[C@@H](CCC(=O)O)C(=O)N[C@@H](CC(C)C)C(=O)N[C@@H](CCC(N)=O)C(=O)N[C@@H](CCCNC(=N)N)C(=O)N[C@H](C(=O)N[C@@H](CCC(N)=O)C(=O)N[C@@H](CCC(N)=O)C(=O)N[C@@H](CCCNC(=N)N)C(=O)N[C@@H](CCCCN)C(=O)N[C@@H](CCC(=O)O)C(=O)N[C@@H](CO)C(=O)N[C@@H](CCCCN)C(=O)N[C@@H](CCCCN)C(=O)N1CCC[C@H]1C(=O)N1CCC[C@H]1C(=O)N[C@@H](C)C(=O)N[C@@H](CCCCN)C(=O)N[C@@H](CC(C)C)C(=O)N[C@@H](CCC(N)=O)C(=O)N1CCC[C@H]1C(=O)N[C@@H](CCCNC(=N)N)C(=O)O)C(C)C)[C@@H](C)O [Chimeric motilin (D)] (H-FVPIFTYGELQRVQQRKESKKPPAKLQPR-OH; N-terminus and C-terminus assumed) | – | 8.9 | half-life ([3]; male, iv): 8.9 min |
| CC[C@H](C)[C@H](NC(=O)[C@@H]1CCCN1C(=O)[C@@H](NC(=O)[C@@H](N)Cc1ccccc1)C(C)C)C(=O)N[C@@H](Cc1ccccc1)C(=O)N[C@H](C(=O)N[C@@H](Cc1ccc(O)cc1)C(=O)NCC(=O)N[C@@H](CCC(=O)O)C(=O)N[C@@H](CC(C)C)C(=O)N[C@@H](CCC(N)=O)C(=O)N[C@@H](CCCNC(=N)N)C(=O)N[C@H](C(=O)N[C@@H](CCC(N)=O)C(=O)N[C@@H](CCC(N)=O)C(=O)N[C@@H](CCCNC(=N)N)C(=O)N[C@@H](CCCCN)C(=O)O)C(C)C)[C@@H](C)O [Chimeric motilin (M), FVPIFTYGELQRVQQRK] (H-FVPIFTYGELQRVQQRK-OH; N-terminus and C-terminus assumed) | – | 2.39 | disappearance half-time extending action in vivo compared with native motilin ([2]; rats): unable to be confirmed |
| CC[C@H](C)[C@H](NC(=O)[C@@H]1CCCN1C(=O)[C@@H](NC(=O)[C@@H](N)Cc1ccccc1)C(C)C)C(=O)N[C@@H](Cc1ccccc1)C(=O)N[C@H](C(=O)N[C@@H](Cc1ccc(O)cc1)C(=O)NCC(=O)N[C@@H](CCC(=O)O)C(=O)N[C@@H](CC(C)C)C(=O)N[C@@H](CCC(N)=O)C(=O)N[C@@H](CCCNC(=N)N)C(=O)N[C@@H](CCSC)C(=O)N[C@@H](CCC(N)=O)C(=O)N[C@@H](CCC(=O)O)C(=O)N[C@@H](CCCCN)C(=O)N[C@@H](CCC(=O)O)C(=O)N[C@@H](CCCNC(=N)N)C(=O)N[C@@H](CC(N)=O)C(=O)N[C@@H](CCCCN)C(=O)NCC(=O)N[C@@H](CCC(N)=O)C(=O)O)[C@@H](C)O [Native Motilin, reference compound] | – | 3.26 | half-life ([3]; intravenous, male rats, N = 3, read-out: T½ Mean Value): 3.26 min |
| RPQLKAPPKKSEKRQQVCFGLKLDRIGSMSGLGCVQQRKESKKPPAKLQPR (disulfide 18-34) [Chimeric CNP (F)] | 17.4 | – | – |
| VQQRKESKKPPAKLQPRCFGLKLDRIGSMSGLGCVQQRKESKKPPAKLQPR (disulfide 18-34) [Chimeric CNP (E)] | 18.4 | – | – |

Reference: patent publication US8551937B2, “Peptide having an extending action for half-life of object peptide in plasma” (priority 2008, dated 2013)
